Results published in article PMC9674851, “Biological effects of the loss of homochirality in a multicellular organism” (Nature Communications, 2022).
Numbered stars: 1 amine (or outer) side, 2 acyl side, 3 side chain; on linkers, the order of the positions; unused ones are H or OH. Square brackets hold non-standard residues; d marks the D form. Peptide text beside a SMILES is read from it. * marks the point of attachment. βAsp = O=C(O)[C@H](CC(=O)[*:2])N[*:1]; AMC = Cc1cc(=O)oc2cc(N*)ccc12

Columns and labels:
[1] = target: T1, recombinant human active Caspase-3 (Homo sapiens, UniProt P42574); assay: ChiCAS: chiral-selective in vitro DEVD-ase assay; type: biochemical; conditions: for caspase-3 activity: substrate 20 µM in HEPES assay buffer with 10 mM DTT, fluorescence at 460 nm; for cleavage by Caspase-3 (in words): recombinant human Caspase-3, fluorogenic AMC substrates
T1 construct: Assay was performed with recombinant human active Caspase-3 (556471, BD Biosciences); purchased BD Biosciences 556471
T1 sequence (P42574 29-175 limits assumed): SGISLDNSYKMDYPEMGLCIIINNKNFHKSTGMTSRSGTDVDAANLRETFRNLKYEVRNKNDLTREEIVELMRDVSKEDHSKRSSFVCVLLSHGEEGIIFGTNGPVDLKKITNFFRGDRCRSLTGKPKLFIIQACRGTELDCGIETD
T1 sequence (P42574 176-277 limits assumed): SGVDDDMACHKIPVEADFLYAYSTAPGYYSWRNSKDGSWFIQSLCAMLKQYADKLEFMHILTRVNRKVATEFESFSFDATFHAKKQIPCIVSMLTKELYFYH
Method: The following homochiral and heterochiral fluorogenic substrates were chemically synthesised: Ac-DEV-(L-aspartate)-AMC (positive control), Ac-DEV-(iso-L-aspartate)-AMC, Ac-DEV-(D-aspartate)-AMC, Ac-DEV-(iso-D-aspartate)-AMC, Ac-DEVG-AMC and Ac-DEV-(L-alanine)-AMC (negative control) and […] (custom peptide synthesis by GenScript). All synthetic peptides were dissolved in DMSO and stored at -80 °C. Reactions were performed as described below. Ac-DEVx-AMC substrates were used in a final concentration of 20 μM in assay buffer (50 mM HEPES, 100 mM NaCl, 0,1% CHAPS, 1 mM EDTA, 10% Glycerol, 10 mM DTT - immediately added before use). Assay was performed with recombinant human active Caspase-3 (556471, BD Biosciences). Reactions were performed in 96 well microplates (100 μl/reaction) and caspase activity was monitored spectrophotometrically by the increase in fluorescence at 460 nm using Synergy 4 BioTek fluorescence absorbance microplate reader and Gen5 program.

[2] = target: T2, purified recombinant human Pimt (Homo sapiens, UniProt P22061); assay: Pimt colorimetric continuous enzyme coupled assay (SAM methyltransferase colorimetric assay); type: biochemical; conditions: Pimt 1 µM, substrate 100 µM, 37 °C
T2 construct: purchased Gentaur MBS144034
T2 sequence (P22061 whole entry): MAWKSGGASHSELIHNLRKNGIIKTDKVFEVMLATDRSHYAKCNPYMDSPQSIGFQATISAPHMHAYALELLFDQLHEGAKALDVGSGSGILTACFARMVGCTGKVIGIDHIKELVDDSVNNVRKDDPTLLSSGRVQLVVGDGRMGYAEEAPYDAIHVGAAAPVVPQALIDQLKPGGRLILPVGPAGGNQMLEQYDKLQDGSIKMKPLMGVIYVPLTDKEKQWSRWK
Method: SAM Methyltransferase colorimetric assay (Merck) was used to measure the activity of purified recombinant human Pimt (EC 2.1.1.77, MBS144034, Gentaur) on different target substrates at 37 °C. Pimt (1 µM final concentration) enzymatic activity was followed spectrophotometrically by the increase in absorbance at 510 nm using DeNovix DS-11 Series microvolume Spectrophotometer/Fluorometer. Assay was performed on different homo- and heterochiral synthetic substrates Ac-[…]-amide (Peptide 1), Ac-KRKGDEV-(iso-L-Asp)-GVDEVAK-amide (Peptide 2) (both of which HPLC purity is >90%), at 100 µM final concentration. The peptide’s sequence is identical and correspond to the PARP1 fragment which is cleaved by Dcp-1 in the in vivo cleavage assay.

[3] = parameters: method as in earlier work; conditions: ref http://www.ilo.org/dyn/icsc/showcard.display?p_version=2&p_card_id=1439; cited from earlier work

Compound	caspase-3 activity ([1]; experiment 1) [R.F.U.]	caspase-3 activity ([1]; experiment 2) [R.F.U.]	caspase-3 activity ([1]; experiment 3) [R.F.U.]	cleavage by Caspase-3 (in words) [1]	Pimt enzymatic activity (in words) [2]	Octanol/water partition coefficient as log Pow [3]
CC(=O)N[C@@H](CC(=O)O)C(=O)N[C@@H](CCC(=O)O)C(=O)N[C@H](C(=O)NCC(=O)Nc1ccc2c(C)cc(=O)oc2c1)C(C)C [Ac-DEVG-AMC, acetyl-DEVG-7-amido-4-methylcoumarin] (Ac-DEVG-{AMC})	650	558	613	non-cleavable	–	–
CC(=O)N[C@@H](CCCCN)C(=O)N[C@@H](CCCNC(=N)N)C(=O)N[C@@H](CCCCN)C(=O)NCC(=O)N[C@@H](CC(=O)O)C(=O)N[C@@H](CCC(=O)O)C(=O)N[C@H](C(=O)N[C@@H](CC(=O)NCC(=O)N[C@H](C(=O)N[C@@H](CC(=O)O)C(=O)N[C@@H](CCC(=O)O)C(=O)N[C@H](C(=O)N[C@@H](C)C(=O)N[C@@H](CCCCN)C(N)=O)C(C)C)C(C)C)C(=O)O)C(C)C [Peptide 2] (Ac-KRKGDEV[βAsp]GVDEVAK-NH2)	–	–	–	–	active Pimt enzymatic activity	–
N[C@@H](CC(=O)O)C(=O)O [AsparticAcid]	–	–	–	–	–	-3.89
CC(=O)N[C@@H](CC(=O)O)C(=O)N[C@@H](CCC(=O)O)C(=O)N[C@H](C(=O)N[C@@H](C)C(=O)Nc1ccc2c(C)cc(=O)oc2c1)C(C)C [Ac-DEVA-AMC, acetyl-DEVA-7-amido-4-methylcoumarin] (Ac-DEVA-{AMC})	396	61	164	non-cleavable	–	–
CC(=O)N[C@@H](CCCCN)C(=O)N[C@@H](CCCNC(=N)N)C(=O)N[C@@H](CCCCN)C(=O)NCC(=O)N[C@@H](CC(=O)O)C(=O)N[C@@H](CCC(=O)O)C(=O)N[C@H](C(=O)N[C@@H](CC(=O)O)C(=O)NCC(=O)N[C@H](C(=O)N[C@@H](CC(=O)O)C(=O)N[C@@H](CCC(=O)O)C(=O)N[C@H](C(=O)N[C@@H](C)C(=O)N[C@@H](CCCCN)C(N)=O)C(C)C)C(C)C)C(C)C [Peptide 1] (Ac-KRKGDEVDGVDEVAK-NH2)	–	–	–	–	no enzymatic activity was detected	–
